US10336762B2 (priority 2017, dated 2019)
Like-named read-outs stand apart in the source and are kept apart here.

What was measured:
TNFα = experiment: cells; type: cell-based, human; conditions: LPS-stimulated human monocytes, read-out: EC50 TNF
IRAK4 enzyme = IRAK4 enzyme (Homo sapiens (Human), UniProt Q9NWZ3); experiment: biochemical; type: biochemical; conditions: IRAK4 enzyme, 500 μM ATP
[1] = Homo sapiens, Monocyte, TNFα content

Sequence of IRAK4 enzyme (Q9NWZ3 whole entry): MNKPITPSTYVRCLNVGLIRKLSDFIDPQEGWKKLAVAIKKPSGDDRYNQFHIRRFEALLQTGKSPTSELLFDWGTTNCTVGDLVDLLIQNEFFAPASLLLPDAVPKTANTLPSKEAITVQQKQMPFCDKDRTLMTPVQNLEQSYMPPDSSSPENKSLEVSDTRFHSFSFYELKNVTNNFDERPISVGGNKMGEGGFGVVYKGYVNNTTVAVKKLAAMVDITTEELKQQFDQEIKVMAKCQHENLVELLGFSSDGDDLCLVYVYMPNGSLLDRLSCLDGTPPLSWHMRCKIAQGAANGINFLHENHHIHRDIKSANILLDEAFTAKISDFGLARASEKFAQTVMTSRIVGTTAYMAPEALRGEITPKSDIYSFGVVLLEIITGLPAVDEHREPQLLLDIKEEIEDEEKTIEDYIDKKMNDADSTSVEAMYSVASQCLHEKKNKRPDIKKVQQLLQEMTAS

`CC(C)Nc1cc(-c2ccc3cc(C#N)cnn23)ncc1C(=O)NC1CC1CO` (single isomer, unassigned) [Example 18, 6-(3-cyanopyrrolo[1,2-b]pyridazin-7-yl)-N-(2-(hydroxymethyl)cyclopropyl)-4-(isopropylamino)nicotinamide] was tested, and the EC50 (TNFα; [1]) was 0.757 µM and the IC50 (IRAK4 enzyme; TR-FRET) was 0.009 µM.
In the case of `CC(C)(O)[C@H](F)CNC(=O)c1cnc(-c2ccc3cc(C#N)cnn23)cc1NC1C2CNCC1C2` (single isomer, unassigned) [Example 25], the EC50 (TNFα; [1]) is reported as 0.116 µM and the IC50 (IRAK4 enzyme; TR-FRET) is reported as 0.002 µM.
Work on `CC(C)(O)[C@H](F)CNC(=O)c1cnc(-c2ccc3cc(C#N)cnn23)cc1NC1C2CNCC1C2` (single isomer, unassigned) [Example 26] yielded an EC50 (TNFα; TNFα content) of 0.182 µM and an IC50 (IRAK4 enzyme; TR-FRET) of 0.003 µM.
With `CC(C)(O)[C@H](F)CNC(=O)c1cnc(-c2ccc3cc(C#N)cnn23)cc1NC1C2CCC1CNC2` (single isomer, unassigned) [Example 27] the EC50 (TNFα; [1]) was 0.175 µM and the IC50 (IRAK4 enzyme; TR-FRET) was 0.002 µM.
`CC(C)(O)[C@H](F)CNC(=O)c1cnc(-c2ccc3cc(C#N)cnn23)cc1NC1C2CCC1CNC2` (single isomer, unassigned) [Example 28] gave an EC50 (TNFα; TNFα content) of 0.109 µM and an IC50 (IRAK4 enzyme; TR-FRET) of under 0.001 µM.
For `CC(C)(O)[C@H](F)CNC(=O)c1cnc(-c2ccc3cc(C#N)cnn23)cc1NC1CC1CO` (single isomer, unassigned) [Example 302], the EC50 (TNFα; [1]) was 0.061 µM and the IC50 (IRAK4 enzyme; TR-FRET) was 0.001 µM.
In the case of `CC(C)(O)[C@H](F)CNC(=O)c1cnc(-c2ccc3cc(C#N)cnn23)cc1NC1CCCC(S(C)(=O)=O)C1` (single isomer, unassigned) [Example 515], the EC50 (TNFα; [1]) is reported as 0.526 µM and the IC50 (IRAK4 enzyme; TR-FRET (HTRF)) is reported as 0.005 µM.
Work on `CC(C)(O)[C@H](F)CNC(=O)c1cnc(-c2ccc3cc(C#N)cnn23)cc1NC1CCCC(S(C)(=O)=O)C1` (single isomer, unassigned) [Example 516] yielded an EC50 (TNFα; TNFα content) of 0.595 µM and an IC50 (IRAK4 enzyme; TR-FRET (HTRF)) of 0.002 µM.
`CC(C)(O)[C@H](F)CNC(=O)c1cnc(-c2ccc3cc(C#N)cnn23)cc1NC1CCCC(S(C)(=O)=O)C1` (single isomer, unassigned) [Example 517] was tested, and the EC50 (TNFα; TNFα content) was 0.484 µM and the IC50 (IRAK4 enzyme; TR-FRET (HTRF)) was under 0.001 µM.
`CC1(O)CCCC(Nc2cc(-c3ccc4cc(C#N)cnn34)ncc2C(=O)NC[C@@H](F)C(C)(C)O)C1` (single isomer, unassigned) [Example 528] showed an EC50 (TNFα; [1]) of 0.065 µM and an IC50 (IRAK4 enzyme; TR-FRET (HTRF)) of 0.001 µM.
`CC1(O)CCCC(Nc2cc(-c3ccc4cc(C#N)cnn34)ncc2C(=O)NC[C@@H](F)C(C)(C)O)C1` (single isomer, unassigned) [Example 529] showed an EC50 (TNFα; TNFα content) of 0.062 µM and an IC50 (IRAK4 enzyme; TR-FRET (HTRF)) of 0.001 µM.
With `CC(C)(O)[C@H](F)CNC(=O)c1cnc(-c2ccc3cc(C#N)cnn23)cc1NC1CC(Cc2cnco2)C1` (single isomer, unassigned) [Example 638] the EC50 (TNFα; TNFα content) was 0.026 µM and the IC50 (IRAK4 enzyme; TR-FRET (HTRF)) was under 0.001 µM.
For `CC(C)(O)[C@H](F)CNC(=O)c1cnc(-c2ccc3cc(C#N)cnn23)cc1NC1CC(Cc2cnco2)C1` (single isomer, unassigned) [Example 640], the EC50 (TNFα; TNFα content) was 0.117 µM and the IC50 (IRAK4 enzyme; TR-FRET (HTRF)) was 0.001 µM.
In the case of `Cc1ncc(C2CCC(Nc3cc(-c4ccc5cc(C#N)cnn45)ncc3C(=O)NC[C@@H](F)C(C)(C)O)CC2)o1` (single isomer, unassigned) [Example 645], the EC50 (TNFα; TNFα content) is reported as 0.301 µM and the IC50 (IRAK4 enzyme; TR-FRET (HTRF)) is reported as 0.01 µM.
With `Cc1ncc(C2CCC(Nc3cc(-c4ccc5cc(C#N)cnn45)ncc3C(=O)NC[C@@H](F)C(C)(C)O)CC2)o1` (single isomer, unassigned) [Example 646] the EC50 (TNFα; TNFα content) was 0.015 µM and the IC50 (IRAK4 enzyme; TR-FRET (HTRF)) was under 0.001 µM.
With `CC(C)(O)[C@H](F)CNC(=O)c1cnc(-c2ccc3cc(C#N)cnn23)cc1NC1Cc2ccncc2C1` (single isomer, unassigned) [Example 676] the EC50 (TNFα; [1]) was 0.081 µM and the IC50 (IRAK4 enzyme; TR-FRET (HTRF)) was 0.001 µM.
In the case of `CC(C)(O)[C@H](F)CNC(=O)c1cnc(-c2ccc3cc(C#N)cnn23)cc1NC1Cc2ccncc2C1` (single isomer, unassigned) [Example 677], the EC50 (TNFα; TNFα content) is reported as 0.054 µM and the IC50 (IRAK4 enzyme; TR-FRET (HTRF)) is reported as under 0.001 µM.
Molecule `CC(C)(O)[C@H](F)CNC(=O)c1cnc(-c2ccc3cc(C#N)cnn23)cc1NC1CCC(C)(N2CCOCC2)CC1` (single isomer, unassigned) [Example 690] has an EC50 (TNFα; TNFα content) of 0.071 µM and an IC50 (IRAK4 enzyme; TR-FRET (HTRF)) of 0.001 µM.
Molecule `CC(C)(O)[C@H](F)CNC(=O)c1cnc(-c2ccc3cc(C#N)cnn23)cc1NC1CCC(C)(N2CCOCC2)CC1` (single isomer, unassigned) [Example 691] has an EC50 (TNFα; TNFα content) of 0.345 µM and an IC50 (IRAK4 enzyme; TR-FRET (HTRF)) of 0.005 µM.
Molecule `COC(=O)NC1CC2(C1)CC(Nc1cc(-c3ccc4cc(C#N)cnn34)ncc1C(=O)NC[C@@H](F)C(C)(C)O)C2` (single isomer, unassigned) [Example 756] has an EC50 (TNFα; TNFα content) of 0.059 µM and an IC50 (IRAK4 enzyme; TR-FRET (HTRF)) of 0.001 µM.
Work on `COC(=O)NC1CC2(C1)CC(Nc1cc(-c3ccc4cc(C#N)cnn34)ncc1C(=O)NC[C@@H](F)C(C)(C)O)C2` (single isomer, unassigned) [Example 757] yielded an EC50 (TNFα; TNFα content) of 0.012 µM and an IC50 (IRAK4 enzyme; TR-FRET (HTRF)) of under 0.001 µM.
In the case of `COC(=O)NCC1(O)CC(Nc2cc(-c3ccc4cc(C#N)cnn34)ncc2C(=O)NC[C@@H](F)C(C)(C)O)C1` (single isomer, unassigned) [Example 759], the EC50 (TNFα; TNFα content) is reported as over 10 µM and the IC50 (IRAK4 enzyme; TR-FRET (HTRF)) is reported as 0.003 µM.
Work on `COC(=O)NCC1(O)CC(Nc2cc(-c3ccc4cc(C#N)cnn34)ncc2C(=O)NC[C@@H](F)C(C)(C)O)C1` (single isomer, unassigned) [Example 760] yielded an EC50 (TNFα; TNFα content) of 0.033 µM and an IC50 (IRAK4 enzyme; TR-FRET (HTRF)) of under 0.001 µM.
In the case of `COC(=O)NCC1(F)CC(Nc2cc(-c3ccc4cc(C#N)cnn34)ncc2C(=O)NC[C@@H](F)C(C)(C)O)C1` (single isomer, unassigned) [Example 764], the EC50 (TNFα; TNFα content) is reported as 0.008 µM and the IC50 (IRAK4 enzyme; TR-FRET (HTRF)) is reported as under 0.001 µM.
`COC(=O)NCC1(F)CC(Nc2cc(-c3ccc4cc(C#N)cnn34)ncc2C(=O)NC[C@@H](F)C(C)(C)O)C1` (single isomer, unassigned) [Example 765] gave an EC50 (TNFα; TNFα content) of 0.323 µM and an IC50 (IRAK4 enzyme; TR-FRET (HTRF)) of 0.006 µM.
`CC(C)(O)[C@H](F)CNC(=O)c1cnc(-c2ccc3cc(C#N)cnn23)cc1Nc1cnn(C2CNCC2(F)F)c1` (single isomer, unassigned) [Example 868] gave an EC50 (TNFα; TNFα by TR-FRET) of 0.053 µM and an IC50 (IRAK4 enzyme; TR-FRET) of under 0.001 µM.
In the case of `CC(C)(O)[C@H](F)CNC(=O)c1cnc(-c2ccc3cc(C#N)cnn23)cc1Nc1cnn(C2CNCC2(F)F)c1` (single isomer, unassigned) [Example 869], the EC50 (TNFα; TNFα by TR-FRET) is reported as 0.014 µM and the IC50 (IRAK4 enzyme; TR-FRET) is reported as under 0.001 µM.
`CC1(Nc2cc(-c3ccc4cc(C#N)cnn34)ncc2C(=O)NC[C@@H](F)C(C)(C)O)COC1` [Example 1, (R)-6-(3-cyanopyrrolo[1,2-b]pyridazin-7-yl)-N-(2-fluoro-3-hydroxy-3-methylbutyl)-4-((3-methyloxetan-3-yl)amino)nicotinamide] gave an EC50 (TNFα; [1]) of 0.032 µM and an IC50 (IRAK4 enzyme; TR-FRET) of under 0.001 µM.
`CC(C)(O)[C@H](F)CNC(=O)c1cnc(-c2ccc3cc(C#N)cnn23)cc1N[C@H]1CCC[C@@H](O)C1` [Example 2, 6-(3-cyanopyrrolo[1,2-b]pyridazin-7-yl)-N-((R)-2-fluoro-3-hydroxy-3-methylbutyl)-4-(((1S,3R)-3-hydroxycyclohexyl)amino)nicotinamide] gave an EC50 (TNFα; [1]) of 0.009 µM and an IC50 (IRAK4 enzyme; TR-FRET) of under 0.001 µM.
Work on `CC(C)Nc1cc(-c2ccc3cc(C#N)cnn23)ncc1C(=O)N[C@H]1CC[C@H](C(C)(C)O)CC1` [Example 3, 6-(3-cyanopyrrolo[1,2-b]pyridazin-7-yl)-N-((1r,4r)-4-(2-hydroxypropan-2-yl)cyclohexyl)-4-(isopropylamino)nicotinamide] yielded an EC50 (TNFα; [1]) of 0.062 µM and an IC50 (IRAK4 enzyme; TR-FRET) of under 0.001 µM.
`CC(C)(O)[C@H](F)CNC(=O)c1cnc(-c2ccc3cc(C#N)cnn23)cc1Nc1cccnc1` [Example 4, (R)-6-(3-cyanopyrrolo[1,2-b]pyridazin-7-yl)-N-(2-fluoro-3-hydroxy-3-methylbutyl)-4-(pyridin-3-ylamino)nicotinamide] gave an EC50 (TNFα; [1]) of 0.033 µM and an IC50 (IRAK4 enzyme; TR-FRET) of under 0.001 µM.
`CC(C)Nc1cc(-c2ccc3cc(C#N)cnn23)ncc1C(=O)NC1CC2(C1)CC(C(C)(C)O)C2` (centres unmarked) [Example 5, 6-(3-cyanopyrrolo[1,2-b]pyridazin-7-yl)-N-(6-(2-hydroxypropan-2-yl)spiro[3.3]heptan-2-yl)-4-(isopropylamino)nicotinamide] was tested, and the EC50 (TNFα; [1]) was 0.207 µM and the IC50 (IRAK4 enzyme; TR-FRET) was under 0.001 µM.
Work on `CC(C)Nc1cc(-c2ccc3cc(C#N)cnn23)ncc1C(=O)NC1CCOCC1` [Example 6, 6-(3-cyanopyrrolo[1,2-b]pyridazin-7-yl)-4-(isopropylamino)-N-(tetrahydro-2H-pyran-4-yl)nicotinamide] yielded an EC50 (TNFα; [1]) of 0.152 µM and an IC50 (IRAK4 enzyme; TR-FRET) of 0.005 µM.
`CC(C)Nc1cc(-c2ccc3cc(C#N)cnn23)ncc1C(=O)NC1COC1` [Example 7, 6-(3-cyanopyrrolo[1,2-b]pyridazin-7-yl)-4-(isopropylamino)-N-(oxetan-3-yl)nicotinamide] showed an EC50 (TNFα; [1]) of 0.442 µM and an IC50 (IRAK4 enzyme; TR-FRET) of 0.005 µM.
Work on `CC(C)(O)[C@H](F)CNC(=O)c1cnc(-c2ccc3cc(C#N)cnn23)cc1NC1CNC(=O)C1` (stereo partly drawn) [Example 8, 6-(3-cyanopyrrolo[1,2-b]pyridazin-7-yl)-N-((R)-2-fluoro-3-hydroxy-3-methylbutyl)-4-((5-oxopyrrolidin-3-yl)amino)nicotinamide] yielded an EC50 (TNFα; [1]) of 0.774 µM and an IC50 (IRAK4 enzyme; TR-FRET) of under 0.001 µM.
For `CC(C)Nc1cc(-c2ccc3cc(C#N)cnn23)ncc1C(=O)NC1(C)COC1` [Example 35, 6-(3-cyanopyrrolo[1,2-b]pyridazin-7-yl)-4-(isopropyl-amino)-N-(3-methyloxetan-3-yl) nicotinamide], the IC50 (IRAK4 enzyme; TR-FRET) was 0.003 µM.
`CC(C)(O)[C@H](F)CNC(=O)c1cnc(-c2ccc3cc(C#N)cnn23)cc1Nc1ccc(-n2nccn2)cc1` [Example 774, (R)-4-((4-(2H-1,2,3-triazol-2-yl)phenyl)amino)-6-(3-cyanopyrrolo[1,2-b]pyridazin-7-yl)-N-(2-fluoro-3-hydroxy-3-methylbutyl)nicotinamide] showed an IC50 (IRAK4 enzyme; TR-FRET (HTRF)) of 0.002 µM.
With `CC(C)(O)[C@H](F)CNC(=O)c1cnc(-c2ccc3cc(C#N)cnn23)cc1Nc1cnc(-c2cn[nH]c2)nc1` [Example 969, (R)-4-((2-(1H-pyrazol-4-yl)pyrimidin-5-yl)amino)-6-(3-cyanopyrrolo[1,2-b]pyridazin-7-yl)-N-(2-fluoro-3-hydroxy-3-methyl-butyl)nicotinamide] the IC50 (IRAK4 enzyme; TR-FRET) was under 0.001 µM.
In the case of “(R)-4-((1H-benzo[d][1,2,3] triazol-5-yl)amino)-6-(3- cyanopyrrolo[1,2-b]pyridazin- 7-yl)-N-(2-fluoro-3- hydroxy-3-methylbutyl) nicotinamide [Example 569]”, the EC50 (TNFα; TNFα content) is reported as over 10 µM.
